In general, pIC50 refers to −log10 of the IC50, conventionally taken in molar units. Lower therefore signals a high IC50. What is called inhibition is the drop in the measured response relative to a control, in per cent.

pIC50: −log10 of the molar value.

Experimental findings from ChEMBL document CHEMBL2113921, “Open Source Malaria Deposition 1. http://malaria.ourexperiment.org” (2013) are described below.

Data set [1] concerns Plasmodium falciparum. As to the kind of experiment: OSM: Inhibition of Plasmodium falciparum 3D7 growth using a SYBR green I fluorescence based assay. GSK Tres Cantos. The format is functional, organism-based.
The subject of data set [2] is Plasmodium falciparum. The experiment in a line: OSM: Inhibition of Plasmodium falciparum 3D7 growth. IC50 values determined from 21 point dose response curves. Avery Group Griffith. The format is functional, organism-based.
Data set [3] relates to Plasmodium falciparum. The experiment in a line: OSM: Inhibition of Plasmodium falciparum 3D7 growth using a SYBR green I fluorescence based assay. Dose response curves were generated comprising of 8 points using a 2-fold serial dilution for the maximum final concentration of 1000 nM. Ralph Group, Bio21. The format is functional, organism-based.
A short description of data set [4]: OSM: HEK293 cytotoxicity assay. Duplicate point single experiment at 120 uM. Avery Group, Griffith. The format is toxicity, cell-based. The settings on record: human, HEK293 cells; read-out: Inhibition.
Data set [5] relates to Plasmodium falciparum. The experiment in a line: OSM: Percent inhibition of Plasmodium falciparum 3D7 growth at 120 uM. Avery Group Griffith. The format is functional.
A further data set deals with Plasmodium falciparum K1. As to the kind of experiment: OSM: Percent inhibition of Plasmodium falciparum K1 growth at 120 uM. Avery Group Griffith. The format is functional.

For `C[C@H]1[C@H](OC(=O)CCC(=O)O)O[C@@H]2O[C@@]3(C)CC[C@H]4[C@H](C)CC[C@@H]1[C@@]24OO3` [ARTESUNATE], the pIC50 in the data set on Plasmodium falciparum [1] is 7.72.

For `Cc1cc(C(=O)N2CCNC(=O)C2)c(C)n1-c1ccccc1`, in the data set on Plasmodium falciparum [2], the pIC50 is less than 4.40.

In the data set on Plasmodium falciparum [2], `Cc1cc(CN(C)CC(N)=O)c(C)n1-c1ccc(F)cc1` gave a pIC50 of less than 4.40.

Turning to `Nc1ncnc2ccsc12`, the pIC50 in the data set with Plasmodium falciparum [2] is less than 4.40.

In turn, `Oc1ncnc2cc(I)sc12` showed a pIC50 in the data set with Plasmodium falciparum [2] of less than 4.40.

For `Clc1ncnc2ccsc12`, in the data set on Plasmodium falciparum [2], the pIC50 is 5.03.

`COc1cccc(NC(=O)CSc2nnc(-c3cc(C)n(-c4ccccc4)c3C)o2)c1` showed a pIC50 with Plasmodium falciparum [2] of less than 4.40.

As for `CC(=O)N(C1=NC(=O)/C(=C/c2cc(C)n(-c3ccc(C)cc3)c2C)S1)c1ccccc1`, the negative-log IC50 (pIC50) in the data set on Plasmodium falciparum [1] is 7.60; with Plasmodium falciparum [2], 6.49; with Plasmodium falciparum [3], 6.81.

On to `Cc1cc(/C=C2\S/C(=N\c3ccccc3)N(CC#N)C2=O)c(C)n1-c1ccc(C(F)(F)F)cc1`, for which the results for the pIC50 in the data set on Plasmodium falciparum [1], in the data set with Plasmodium falciparum [2] and with Plasmodium falciparum [3] were less than 5.30, 5.51 and less than 6.00, respectively.

Turning to `Cc1c(C(=O)OCC(N)=O)cnn1-c1ccccc1`, the pIC50 in the data set on Plasmodium falciparum [2] was less than 4.40.

As to `Cc1cc(C(=O)O)c(C)n1-c1ccc(C(F)(F)F)cc1`, the cytotoxicity at 120 µM in data set [4] was 0%. Besides, the results for the inhibition at 120 µM with Plasmodium falciparum [5] and with Plasmodium falciparum K1 were 25% and 0%, respectively.

`COC(=O)c1coc(-c2cc(C)n(-c3ccc(F)cc3)c2C)n1` showed a pIC50 with Plasmodium falciparum [2] of less than 4.40.

Turning to `CNC(=O)CCC(=O)c1cc(C)n(-c2ccc(F)cc2)c1C`, the pIC50 in the data set on Plasmodium falciparum [2] was less than 4.40.

In the case of `Cc1cc(C(=O)NCC(=O)Nc2c(C)n(C)n(-c3ccccc3)c2=O)c(C)n1-c1ccc(F)cc1`, the results for the pIC50 in the data set with Plasmodium falciparum [1], in the data set on Plasmodium falciparum [2] and in the data set with Plasmodium falciparum [3] were less than 5.30, 4.51 and less than 6.00, respectively.

In the case of `CCOC(=O)c1cc(C)n(-c2ccc(C)cc2)c1C`, the cytotoxicity at 120 µM in data set [4] was found to be 0%. Moreover, the inhibition at 120 µM came to 85% in the data set on Plasmodium falciparum [5] and 50% with Plasmodium falciparum K1.

Take `Cc1cc(C(=O)O)c(C)n1-c1ccccc1`: the cytotoxicity at 120 µM in data set [4] was 0%. Moreover, the results for the inhibition at 120 µM in the data set with Plasmodium falciparum [5] and in the data set with Plasmodium falciparum K1 were 70% and 50%, respectively.

Consider `CCOC(=O)c1cc(C)n(-c2ccccc2)c1C`, for which the cytotoxicity at 120 µM in data set [4] came out at 0%. For the same compound, the inhibition at 120 µM came to 80% in the data set with Plasmodium falciparum [5] and 0% in the data set on Plasmodium falciparum K1.

For `Cc1cc(C(=O)CCC(=O)O)c(C)n1-c1ccc(F)cc1`, the pIC50 in the data set on Plasmodium falciparum [2] is less than 4.40.

On to `CNC(=O)COC(=O)c1cc(C)n(-c2ccc(F)cc2)c1C`, for which, in the data set with Plasmodium falciparum [2], the pIC50 is 5.03.

In the data set on Plasmodium falciparum [2], `c1nc(N2CCOCC2)c2sccc2n1` had a pIC50 of less than 4.40.

For the compound `NS(=O)(=O)c1cccc(CNc2ncnc3ccsc23)c1`, the pIC50 in the data set on Plasmodium falciparum [2] is less than 4.40.

In the case of `Cc1c(-c2nc(C(N)=O)co2)cnn1-c1ccc(F)cc1`, the pIC50 in the data set on Plasmodium falciparum [2] was less than 4.40.

The compound `Cc1cc(C(=O)N(C)CC(N)=O)c(C)n1-c1ccc(F)cc1` gave a pIC50 in the data set with Plasmodium falciparum [2] of less than 4.40.

`NC(=O)COC(=O)c1cnn(-c2ccc(F)cc2)c1`: in the data set on Plasmodium falciparum [2], the pIC50 is less than 4.40.

The compound `Cc1cc(C(=O)CCC(=O)N(C)C)c(C)n1-c1ccc(F)cc1` showed a pIC50 in the data set on Plasmodium falciparum [2] of less than 4.40.

`CCOC(=O)C(C)OC(=O)c1cc(C)n(-c2ccc(F)cc2)c1C` (stereo unspecified) had a pIC50 in the data set with Plasmodium falciparum [2] of less than 4.40.

Take `CC(=O)N(C1=NC(=O)/C(=C/c2cc(C)n(-c3ccc(C(F)(F)F)cc3)c2C)S1)c1ccccc1`: the pIC50 is 7.59 in the data set on Plasmodium falciparum [1], 7.92 in the data set with Plasmodium falciparum [2] and 8.10 in the data set with Plasmodium falciparum [3].

Take `Cc1cc(C(=O)N(C)C)c(C)n1-c1ccc(F)cc1`: the pIC50 in the data set with Plasmodium falciparum [2] was less than 4.40.

As to `Cc1cc(CNCC(N)=O)c(C)n1-c1ccc(F)cc1`, the pIC50 in the data set on Plasmodium falciparum [2] was less than 4.40.

Regarding `Cc1cc(C(=O)OC(C)C(=O)O)c(C)n1-c1ccc(F)cc1` (stereo unspecified), the pIC50 with Plasmodium falciparum [2] was less than 4.40.

Consider `COC(=O)c1coc(-c2cnn(-c3ccc(F)cc3)c2C)n1`, for which the pIC50 in the data set on Plasmodium falciparum [2] was less than 4.40.

Take `CCc1ccc(-n2c(C)cc(CN3CCC(C(=O)O)CC3)c2C)cc1`: the pIC50 in the data set with Plasmodium falciparum [2] was less than 4.40.

In the data set with Plasmodium falciparum [2], `Cc1cc(-c2nc(C(=O)O)co2)c(C)n1-c1ccc(F)cc1` gave a pIC50 of less than 4.40.

Take `Cc1c(-c2nc(C(=O)O)co2)cnn1-c1ccc(F)cc1`: in the data set on Plasmodium falciparum [2], the pIC50 is less than 4.40.

As for `CNS(=O)(=O)c1ccc(CNc2ncnc3cc(-c4ccc(OC)cc4)sc23)s1`, the pIC50 in the data set with Plasmodium falciparum [2] was 4.75.

In turn, `Cc1cc(C(=O)OC(C)(C)C(N)=O)c(C)n1-c1ccc(F)cc1` showed a pIC50 with Plasmodium falciparum [2] of less than 4.40.

For `NS(=O)(=O)c1ccc(CNc2nc(-c3ccsc3)nc3ccccc23)cc1`, the pIC50 with Plasmodium falciparum [2] was less than 4.40.

Regarding `CN(C)C(=O)n1cnc(S(=O)(=O)N(C)c2ccccc2)n1`, the pIC50 in the data set with Plasmodium falciparum [2] is 6.48.

`CC(=O)N(C1=NC(=O)/C(=C/c2cc(C)n(-c3ccccc3)c2C)S1)c1ccccc1`: the pIC50 with Plasmodium falciparum [1] was 7.07; in the data set with Plasmodium falciparum [2], 7.20; with Plasmodium falciparum [3] it was 7.55.

Compound `O=C1C(O)=C([C@H]2CC[C@H](c3ccc(Cl)cc3)CC2)C(=O)c2ccccc21` [ATOVAQUONE] gave a pIC50 in the data set on Plasmodium falciparum [1] of 9.00.

Regarding `Cc1cc(C(=O)NCC(=O)N(C)C)c(C)n1-c1ccccc1`, the pIC50 in the data set with Plasmodium falciparum [2] was less than 4.40.

Consider `CCOC(=O)c1ccc(-n2c(C)cc(/C=C3\S/C(=N/c4ccccc4)NC3=O)c2C)cc1`, for which the pIC50 in the data set with Plasmodium falciparum [1] is 6.57; with Plasmodium falciparum [2], 6.77; in the data set with Plasmodium falciparum [3] it was 6.47.

In the data set on Plasmodium falciparum [2], `O=S(=O)(Nc1ncnc2sc(-c3ccccc3)cc12)c1ccccc1` gave a pIC50 of less than 4.40.

Compound `COC(=O)[C@H](CO)NC(=O)c1cc(C)n(-c2ccc(F)cc2)c1C` showed a pIC50 in the data set with Plasmodium falciparum [2] of less than 4.40.

`COc1ccc(S(=O)(=O)N2CCC(Nc3ncnc4ccsc34)CC2)cc1` showed a pIC50 in the data set with Plasmodium falciparum [2] of less than 4.40.

For `Cc1cc(C(=O)N(C(=O)NC2CCCCC2)C2CCCCC2)c(C)n1-c1ccc(F)cc1`, the pIC50 in the data set with Plasmodium falciparum [2] was 5.11.

With `COC(=O)[C@@H]1COC(c2cc(C)n(-c3ccc(F)cc3)c2C)=N1`, the pIC50 with Plasmodium falciparum [2] is less than 4.40.

As for `COC(=O)c1sccc1NC=O`, the pIC50 with Plasmodium falciparum [2] was less than 4.40.

The compound `Cc1cc(C(=O)OCC(=O)N(C)C)c(C)n1-c1ccc(F)cc1` had a pIC50 with Plasmodium falciparum [2] of 4.95.

On to `CNC(=O)CN1CCC(NCc2cc(C)n(-c3ccc(Cl)cc3)c2C)CC1`, for which the pIC50 in the data set with Plasmodium falciparum [2] is 4.83. The pIC50 values of the last two compounds are within 0.2 log units of each other.

On to `Cc1cc(/C=C2\S/C(=N\c3ccccc3)NC2=O)c(C)n1-c1ccccn1`, for which the pIC50 in the data set with Plasmodium falciparum [1] was 6.51; in the data set on Plasmodium falciparum [2], 6.51; in the data set with Plasmodium falciparum [3], 6.35.

Consider `CC(Nc1ncnc2ccsc12)c1cccc(S(N)(=O)=O)c1` (stereo unspecified), for which the negative-log IC50 (pIC50) in the data set with Plasmodium falciparum [2] was less than 4.40.

Compound `Cc1ccc(Nc2ncnc3ccsc23)cc1S(=O)(=O)N(C)C` showed a pIC50 in the data set on Plasmodium falciparum [2] of less than 4.40.

The compound `CCN(CC(=O)Nc1c(F)cccc1F)C(=O)c1cc(C)n(-c2ccc(F)cc2)c1C` had a pIC50 in the data set with Plasmodium falciparum [2] of less than 4.40.

In the case of `c1ccc(CSc2nc[nH]n2)cc1`, in the data set on Plasmodium falciparum [2], the negative logarithm of the IC50 (pIC50) was less than 4.40.

`CCNC(=O)C1CC(N)CN1Cc1cc(C)n(-c2ccccc2Cl)c1C` (stereo unspecified) showed a pIC50 in the data set with Plasmodium falciparum [2] of 4.61.

Consider `Cc1cc(/C=C2\SC(N(CC#N)c3ccccc3)=NC2=O)c(C)n1-c1ccc(C(F)(F)F)cc1`, for which the pIC50 in the data set with Plasmodium falciparum [1] was less than 5.30; with Plasmodium falciparum [3], less than 6.00.

Turning to `Cc1cc(/C=C2\S/C(=N\c3ccccc3)N(c3ccccc3)C2=O)c(C)n1-c1ccc(C(F)(F)F)cc1`, the pIC50 is 6.43 in the data set with Plasmodium falciparum [1], 7.27 in the data set with Plasmodium falciparum [2] and 6.31 with Plasmodium falciparum [3].

In the data set on Plasmodium falciparum [2], `Cc1cc(CNC2CCN(Cc3ccccc3)CC2)c(C)n1-c1ccc(F)cc1` gave a pIC50 of 5.32.

Turning to `CN(C)C(=O)n1cnc(SCc2ccccc2)n1`, the pIC50 with Plasmodium falciparum [2] was 6.36.

Regarding `CCOc1ccc(Nc2ncnc3ccsc23)cc1S(=O)(=O)N(C)C`, the pIC50 in the data set with Plasmodium falciparum [2] is less than 4.40.
